This is an account of results in patent US20100212036A1, “SELECTIVE INHIBITION OF HISTONE DEACETYLASES 1 AND 2 AS A TREATMENT FOR CARDIAC HYPERTROPHY” (priority 2008, published 2010).

Assay [1] relates to cardiomyocytes. The following applies: treatment of cardiomyocytes with HDAC inhibitors; cited from earlier work.
Assay [2] concerns PPARα-responsive genes. In words: Real-time RT-PCR of PPARα target genes in hearts of wild-type and HDAC3cKO mice after Wy14,643. The class given is in vivo. Conditions: 50 mg/kg single intraperitoneal injection. As to the method: FIGS. 5A-E. Aberrant expression of cardiac metabolism genes from cardiac deletion of HDAC3. (FIG. 5A) Microarray analysis was performed at 5 weeks and gene ontology analysis was performed with PANTHER. […] (FIG. 5B) PPAR-regulated mitochondrial uncoupling genes are increased in HDAC3cKO mice. […] (FIG. 5E) Glucose metabolism is decreased in HDAC3cKO hearts. For (FIGS. 5B-E), real-time RT-PCR was performed from LV RNA of 6-week-old wild-type and HDAC3cKO mice in absence or presence of Wy14,643. Transcript levels were normalized to 18S Ribosomal RNA. KO, HDAC3cKO. Error bars represent standard deviation.
RT-PCR and microarray. For all gene expression analyses from wild-type and HDAC3cKO mice, 4 wild-type and 4 HDAC3cKO hearts were isolated and analyzed. Total RNA was purified using TRIzol reagent according to manufacturer's instructions. For RT-PCR, total RNA was used for reverse transcriptase using random hexamer primers. Primer sequences are available upon request. Quantitative real time PCR was performed using Taqman probes purchased from ABI. For microarray, RNA was extracted from either 3 wild-type or HDAC3cKO hearts and subsequently pooled prior to analysis. Microarray analysis was performed using the Mouse Genome 430 2.0 Array (Affymetrix). All heart RNA was from ventricle tissue only. Microarray analysis was performed by the UT Southwestern Microarray Core Facility using the Mouse Genome 430 2.0 Array (Affymetrix) as described (Davis et al., 2006)
Animal studies. For fasting studies, male HDAC3cKO and wild-type littermates were fasted for 24 hrs. After 24 hrs, mice were sacrificed, hearts extracted, and prepared for Oil Red O staining. Control mice were allowed standard chow ad libitum. Wy14,643 (Biomol) (50 mg/kg body weight) in 50% DMSO/saline was administered as a single intraperitoneal injection. Control littermates were administered vehicle and hearts were extracted 8 hrs after injection. All animal studies were approved by the IACUC of the University of Texas Southwestern Medical Center.
A general note: In qPCR the cycle at which signal appears reflects the starting amount.

Assay [3] concerns HDAC3. Nature of the assay: HDAC3 expression in settings of hypertrophy and failure. It counts as in vivo. Conditions: following infusion; data not shown.
[4] abbreviates: hearts 8 hrs after injection, vs baseline.
The mark [5] stands for this setting: HDAC3cKO mice, LV RNA, hearts extracted 8 hrs after injection, vs baseline.

`CC(/C=C/C(=O)NO)=C\[C@@H](C)C(=O)c1ccc(N(C)C)cc1` [TSA]: in assay [1], the “activation of the fetal gene program” value is “dose-dependentle block activation” and the hypertrophic response entry was “block the hypertrophic response”.
As to `CCCC(CCC)C(=O)O` [VPA], in assay [1], the “activation of the fetal gene program” value is given as “dose-dependentle block activation” and the hypertrophic response result was “block the hypertrophic response”.
As to `Cc1cccc(Nc2cc(Cl)nc(SCC(=O)O)n2)c1C` [Wy14,643], in assay [2] (setting [4]), the CD36 transcript level entry is recorded as “up-regulated”, the “FACS (Acsl1) transcript level” value is listed as “up-regulated” and the “FATP (Slc27a1) transcript level” value was “up-regulated”. Besides, in assay [2] (HDAC3cKO hearts), the “ACOX (acyl-CoA oxidase 1) expression” value is “further up-regulated”. In addition, in assay [2] (HDAC3cKO mice), the GLUT4 expression result was “further decreased” and the PDK4 expression entry was “further elevated”. For the same compound, in assay [2] (setting [5]), the UCP2 transcript level result is given as “induction was increased” and the UCP3 transcript level result is given as “induction was increased”. For the same compound, the mCPT-1 transcript levels entry in assay [2] (wild-type or HDAC3cKO hearts) was “had no effect”.
Turning to `CC(C)NCC(O)c1ccc(O)c(O)c1` (stereo not drawn) [isoproterenol], the HDAC3 expression levels entry in assay [3] is “decreased”.
The same measure, in the same setting: the entry for angiotensin is “not significantly altered”.
